Patent US11224628B2, “Method for extraction of an agent from a plant source” (Yissum Research Development Company of the Hebrew …, priority 2017, dated 2022)

Assay: Self-diffusion NMR (SD-NMR) diffusion coefficients of the components of the AX-loaded medium
Format: physicochemical
Settings: 0.5 wt % AX-loaded medium
Protocol: In order to determine the structure of the oil droplets (or micelles) of the medium, self-diffusion NMR analysis was carried out. SD-NMR is able to locate each component within the medium via measurements of its diffusion coefficient.
NMR measurements were performed with a Bruker AVII 500 spectrometer equipped with GREAT 1/10 gradients, a 5 mm BBO and a 5 mm BBI probe, both with a z-gradient coil and with a maximum gradient strength of 0.509 and 0.544 Tm^−1, respectively. Diffusion was measured using an asymmetric bipolar longitudinal eddy-current delay (bpLED) experiment, or an asymmetric bipolar stimulated echo (known as one-shot) experiment with convection compensation and an asymmetry factor of 20%, ramping the strongest gradient from 2% to 95% of maximum strength in 32 steps. The spectrum was processed with the Bruker TOPSPIN software. NMR spectra were recorded at 25±0.2° C. The components were identified by their chemical shift in 1H NMR.

In the case of `C=C(C)[C@H]1CC=C(C)CC1` [R-(+)-limonene, R-(+)-Limonene], the Diffusion coefficient (water content 0 wt %) is reported as 5.46 × 10^−11 m^2/sec, the Diffusion coefficient (water content 10 wt %) is reported as 3.09 × 10^−11 m^2/sec and the Diffusion coefficient (water content 20 wt %) is reported as 2.36 × 10^−11 m^2/sec. For the same compound, the Diffusion coefficient (water content 30 wt %) was 3.2 × 10^−12 m^2/sec, the Diffusion coefficient (water content 40 wt %) was 1.4 × 10^−12 m^2/sec and the Diffusion coefficient (water content 50 wt %) was 1.4 × 10^−12 m^2/sec. The Diffusion coefficient (water content 60 wt %) was 3.1 × 10^−12 m^2/sec, the Diffusion coefficient (water content 70 wt %) was 5.7 × 10^−12 m^2/sec and the Diffusion coefficient (water content 80 wt %) was 1.10 × 10^−11 m^2/sec. For the same compound, the Diffusion coefficient (water content 90 wt %) was 1.91 × 10^−11 m^2/sec.

With `[2H]O[2H]` [Formulation D2O, D2O] the Diffusion coefficient (water content 10 wt %) was 3.1 × 10^−11 m^2/sec, the Diffusion coefficient (water content 20 wt %) was 2.84 × 10^−11 m^2/sec and the Diffusion coefficient (water content 30 wt %) was 3.2 × 10^−12 m^2/sec. For the same compound, the Diffusion coefficient (water content 40 wt %) was 1.3 × 10^−12 m^2/sec, the Diffusion coefficient (water content 50 wt %) was 2.69 × 10^−11 m^2/sec and the Diffusion coefficient (water content 60 wt %) was 7.96 × 10^−10 m^2/sec. The Diffusion coefficient (water content 70 wt %) was 9.1 × 10^−10 m^2/sec, the Diffusion coefficient (water content 80 wt %) was 1.16 × 10^−9 m^2/sec and the Diffusion coefficient (water content 90 wt %) was 1.48 × 10^−09 m^2/sec.

For `CCO` [EtOH, Ethanol], the Diffusion coefficient (water content 0 wt %) was 4.13 × 10^−11 m^2/sec, the Diffusion coefficient (water content 10 wt %) was 4.66 × 10^−11 m^2/sec and the Diffusion coefficient (water content 20 wt %) was 4.78 × 10^−11 m^2/sec. The Diffusion coefficient (water content 30 wt %) was 8.67 × 10^−11 m^2/sec, the Diffusion coefficient (water content 40 wt %) was 1.2 × 10^−10 m^2/sec and the Diffusion coefficient (water content 50 wt %) was 1.7 × 10^−10 m^2/sec. For the same compound, the Diffusion coefficient (water content 60 wt %) was 2.33 × 10^−10 m^2/sec, the Diffusion coefficient (water content 70 wt %) was 3.32 × 10^−10 m^2/sec and the Diffusion coefficient (water content 80 wt %) was 4.67 × 10^−10 m^2/sec. The Diffusion coefficient (water content 90 wt %) was 5.89 × 10^−10 m^2/sec.

For `CC1=C(/C=C/C(C)=C/C=C/C(C)=C/C=C/C=C(C)/C=C/C=C(C)/C=C/C2=C(C)C(=O)[C@@H](O)CC2(C)C)C(C)(C)C[C@H](O)C1=O` [AX, astaxanthin], the Diffusion coefficient (water content 0 wt %) was 4.7 × 10^−12 m^2/sec, the Diffusion coefficient (water content 10 wt %) was 3 × 10^−12 m^2/sec and the Diffusion coefficient (water content 20 wt %) was 1.4 × 10^−12 m^2/sec. For the same compound, the Diffusion coefficient (water content 30 wt %) was 3 × 10^−13 m^2/sec, the Diffusion coefficient (water content 40 wt %) was 3 × 10^−13 m^2/sec and the Diffusion coefficient (water content 50 wt %) was 7 × 10^−13 m^2/sec. The Diffusion coefficient (water content 60 wt %) was 1.4 × 10^−12 m^2/sec, the Diffusion coefficient (water content 70 wt %) was 4.8 × 10^−12 m^2/sec and the Diffusion coefficient (water content 80 wt %) was 1.12 × 10^−11 m^2/sec.

For `CC(O)CO` (stereo not shown) [PG, Propylene glycol], the Diffusion coefficient (water content 0 wt %) was 4.43 × 10^−11 m^2/sec, the Diffusion coefficient (water content 10 wt %) was 4.78 × 10^−11 m^2/sec and the Diffusion coefficient (water content 20 wt %) was 4.86 × 10^−11 m^2/sec. The Diffusion coefficient (water content 30 wt %) was 8.69 × 10^−11 m^2/sec, the Diffusion coefficient (water content 40 wt %) was 1.23 × 10^−10 m^2/sec and the Diffusion coefficient (water content 50 wt %) was 1.75 × 10^−10 m^2/sec. The Diffusion coefficient (water content 60 wt %) was 2.41 × 10^−10 m^2/sec, the Diffusion coefficient (water content 70 wt %) was 3.35 × 10^−10 m^2/sec and the Diffusion coefficient (water content 80 wt %) was 4.67 × 10^−10 m^2/sec. The Diffusion coefficient (water content 90 wt %) was 6.03 × 10^−10 m^2/sec.

With `CCCCCCCC/C=C\CCCCCCCC(=O)OCCOCC(OCCO)C1OCC(OCCO)C1OCCO` (stereo not shown) [Tween 80, Polysorbate 80] the Diffusion coefficient (water content 0 wt %) was 4.5 × 10^−12 m^2/sec, the Diffusion coefficient (water content 10 wt %) was 3.5 × 10^−12 m^2/sec and the Diffusion coefficient (water content 20 wt %) was 2.9 × 10^−12 m^2/sec. For the same compound, the Diffusion coefficient (water content 30 wt %) was 6 × 10^−13 m^2/sec, the Diffusion coefficient (water content 40 wt %) was 4 × 10^−13 m^2/sec and the Diffusion coefficient (water content 50 wt %) was 9 × 10^−13 m^2/sec. For the same compound, the Diffusion coefficient (water content 60 wt %) was 2.2 × 10^−12 m^2/sec, the Diffusion coefficient (water content 70 wt %) was 5.3 × 10^−12 m^2/sec and the Diffusion coefficient (water content 80 wt %) was 1.05 × 10^−11 m^2/sec. For the same compound, the Diffusion coefficient (water content 90 wt %) was 1.91 × 10^−11 m^2/sec.
